Measured values reported in ChEMBL document CHEMBL3507680, “University of Dundee, Gates Library screen for HepG2 cell viability”.

Assay: Human HepG2 cell viability assay in 384 well format
Type: toxicity, cell-based
Parameters: dose 125 nL, time 70.5 hour; concentration not given beside the values
Conditions: HepG2 cells, read-out: Inhibition

| Structure (SMILES) | cytotoxicity at 70.5 h |
| --- | --- |
| Cc1nc2ccccc2nc1CN1CCCCC1Cn1cccn1 (configuration not stated) | -12.7% |
| N#Cc1cc(NC(=O)C2CC=CC2)ccc1N1CCC(O)CC1 | -0.67% |
| Cc1ccc(N2CCCN(CC3CC3)C(C(C)C)C2)nn1 (configuration not stated) | -14.3% |
| COC1CCN(C(=O)NCC(N)=O)CC(=O)N(C)c2ccccc21 (configuration not stated) | -5.28% |
| CC1CN(C(=O)C2(c3ccc(F)cc3F)CCOCC2)CCO1 (configuration not stated) | -2.6% |
| Cc1noc(C)c1CN1C[C@H](OCc2ccncc2)[C@H]2OCCC[C@H]21 | -13.2% |
| Brc1cccc(-c2noc(C3COCCO3)n2)c1 (configuration not stated) | -9.75% |
| Cc1ccc(F)c(NS(=O)(=O)c2cc3c(c(C(=O)O)c2)OCCO3)c1 | 2.59% |
| Cc1cc(CNC(=O)CC2CN(C(=O)OC(C)(C)C)C2)ccc1F | -9.79% |
| Cc1csc(N2CCN(Cc3cscn3)CC2C)n1 (configuration not stated) | -4.06% |
| O=C(c1ccc2[nH]nnc2c1)N1CC[C@H](O)[C@]2(CCCO2)C1 | -4.29% |
| Cc1sc2c(C3CCCNC3)nc(Nc3cccc(F)c3)n2c1C (configuration not stated) | -5.08% |
| O=C(NC1CCc2ccccc2C1)N1CCN(C(=O)C2CCC2)CC1 (configuration not stated) | -5.12% |
| CC(=O)N1CCC2(CC1)CN(CC1CC1)c1ccc(F)cc12 | 1.47% |
| CC(=O)N1CCC2(CCN(C(=O)c3ccc(C)c(C(F)(F)F)c3)CC2)C1 | 37.6% |
| CCc1nc(C)c([C@H]2CN(C)C[C@@H]2C(=O)Nc2ccccc2F)[nH]1 | -13.9% |
| Cc1nc2c(cc1C(=O)Nc1ccccc1Cl)c(=O)n(C)c(=O)n2C | -9.88% |
| O=C(NCC1CCC2(CCNCC2)O1)C1CC1 (configuration not stated) | 2.18% |
| CNCC(=O)N1CCCC(c2cccc(Nc3nc(C)cc(C)n3)n2)C1 (configuration not stated) | 58.7% |
| CC(=O)N1CCC2(CCN(C(=O)c3ccc(F)c(C(F)(F)F)c3)CC2)C1 | -6.93% |
| CSCC(C)CNC(=O)N1CCSC(C)(C)C1 (configuration not stated) | -2.74% |
| O=C(c1ccno1)N1CCCC(c2ncncc2-c2ccncc2)C1 (configuration not stated) | -9.77% |
| CC(=O)N1CCN(c2ccnc3c(F)cc(Br)cc23)CC1 | -1.55% |

| Structure (SMILES) | cytotoxicity at 70.5 h |
| --- | --- |
| CC(C)COCCC(=O)NS(=O)(=O)c1ccc(Cl)s1 | -16.7% |
| CCCc1ccc(CN2CCC3(CCC(=O)N(CCCOC)C3)CC2)o1 | 20.6% |
| Cc1nc(C)c(C(=O)NCCNc2ncccn2)s1 | -5.75% |
| CC1CN(CC2CCCCC2)CCN1c1ccc2nncn2n1 (configuration not stated) | 41.2% |
| COc1ccc2nnc(CCCC(=O)NCCc3ccncc3)n2n1 | -5% |
| Cc1ccn(-c2ccc(N3CCN(Cc4ccccn4)CC3)nn2)n1 | -7.77% |
| CO[C@@H]1CCN(C(=O)Cc2ccc(F)cc2)[C@@H]1Cc1cccnc1 | -3.63% |
| Cc1cc(C(=O)NCc2csc(N(C)C)n2)c2ccc(C)c(C)c2n1 | 0.264% |
| Cc1cncc(C(=O)N2CC[C@@]3(C[C@H](NS(C)(=O)=O)CCO3)C2)c1 | -7.39% |
| Cc1cc(C(=O)N2C[C@H]3CC[C@@H]2CN(Cc2ccccn2)C3)nc(N)n1 | 23.1% |
| COc1ccccc1C(=O)N1CC2(COC(C)(C)OC2)C1 | -0.0905% |
| CC(C)OCc1ccc(CNC(=O)CC(F)(F)F)cc1 | -7.73% |
| Cc1nc(C)c(C(=O)N2CCC(O)(Cn3ccc4ccncc43)CC2)s1 | 1.41% |
| Nc1nccnc1C1CN(C(=O)c2ccc3c(c2)OCO3)CCO1 (configuration not stated) | -13.9% |
| N#Cc1cccnc1NCc1ccc(S(=O)(=O)NC2CC2)cc1 | -17.8% |
| Cc1nc(CN2CCCC2c2c(C)nn(C)c2Cl)no1 (configuration not stated) | -1.31% |
| Cc1ncc(C(=O)N2CC(C(=O)N3CCCCCC3)C2)c(C)n1 | -4.02% |
| N#CC1COCCN1C(=O)c1ccc2[nH]ccc2c1 (configuration not stated) | 0.401% |
| Cn1cc(NC(=O)N2CCC2c2ccccc2)ccc1=O (configuration not stated) | -4.87% |
| CN(Cc1ccco1)Cc1cnc2n1CCN(c1ccccn1)CC2 | -2.44% |
| CN(C[C@H]1CN2CC[C@H]1C[C@@H]2CNC(=O)c1ccco1)c1ccccc1 | -0.576% |
| NC(=O)N1CCC(NCc2cc(Br)ccc2Cl)CC1 | -1.95% |
| Cc1ccc(CN2C[C@H](O)C[C@H]2c2nc(-c3ccc(F)cc3)no2)cc1 | -7.37% |

| Structure (SMILES) | cytotoxicity at 70.5 h |
| --- | --- |
| Cc1cc(CN2CCC(CNC(=O)c3ccc4[nH]cnc4c3)C2)[nH]n1 (configuration not stated) | -6.71% |
| CCOC1CCCN(C(=O)c2[nH]nc(C)c2Br)C1 (configuration not stated) | -11.5% |
| CCc1ccsc1C(=O)N1CCS(=O)(=O)CC1 | -8.8% |
| CCCn1cc(C(=O)NC2CCN(CC(=O)NC3CC3)CC2)c(C)n1 | 0.264% |
| Cn1nc(CN2CCCN(C3CCCC3)CC2)c2c(Cl)cccc21 | -6.04% |
| Cc1nn(C)c(C)c1C1CCCN1C(=O)CCc1ccco1 (configuration not stated) | -1.9% |
| CC(=O)N1CCCN(CCCSc2ccccc2Cl)CC1 | -6.8% |
| CC(=O)N1CCCN(Cc2ccon2)c2ccccc21 | 18.6% |
| NC(=O)C1CCN(C(=O)NC(Cc2ccccc2)C(F)(F)F)CC1 (configuration not stated) | 3.75% |
| CCc1cc(N(C)CCc2c(C)n[nH]c2C)ncn1 | 26.8% |
| O=C(CCN1CCc2[nH]nc(C(F)(F)F)c2C1)Nc1ccccc1 | -2.13% |
| Cc1sc2nc(C(F)(F)F)nc(N3CCN(S(C)(=O)=O)CC3)c2c1C | -4.32% |
| CN1CCCC(CCC(=O)NCCc2nnc(N)s2)C1 (configuration not stated) | 9.25% |
| CC(=O)N1CCCC1c1nccc(C)n1 (configuration not stated) | -9.48% |
| COc1ccccc1CC1CCCN(CCN2CCOC2=O)C1 (configuration not stated) | -7.17% |
| CCn1cc(C(=O)N2CCCC(c3noc(C)n3)C2)cn1 (configuration not stated) | -2.74% |
| COCCN(Cc1cccnc1)S(=O)(=O)c1ccc(F)cc1C | -4.8% |
| CC(C)N1CCC(N2CCC(C(=O)N(C)C)CC2)CC1 | 1.65% |
| CN1CCOC(CNC(=O)Cc2ccccc2F)C1 (configuration not stated) | -8.56% |
| CO[C@H]1C[C@@H](O)C12CCN(C(=O)NCc1ccco1)CC2 | 17.8% |
| NC(=O)CN(CC(=O)NCc1cc(F)cc(F)c1)C1CCCC1 | -10.9% |
| COc1cc(CCC(=O)NCC2CC2)ccc1OCC(F)(F)F | -11.6% |
| O=C(N1CCC(OCc2ccccn2)CC1)C1(c2ccc(F)cc2)CC1 | -0.41% |

| Structure (SMILES) | cytotoxicity at 70.5 h |
| --- | --- |
| c1coc(CNc2nnc(Cc3ccsc3)o2)c1 | -3.55% |
| CCCN1CCCCC1C(=O)Nc1ccc(-c2nnc[nH]2)cc1 (configuration not stated) | -4.51% |
| COCCN1CC(C(=O)NCc2cccnc2-n2cccn2)CC1=O (configuration not stated) | -7.22% |
| CN(c1cccnn1)[C@@H]1CC[C@@H]2CN(Cc3cccc(C(=O)O)c3)C[C@@H]21 | -6.81% |
| Nc1nc(CCC(=O)N2C[C@H](c3ccccc3)[C@@H](N)C2)cs1 | -20.5% |
| Cc1ccc(C2CSCCN2C(=O)c2cnsn2)o1 (configuration not stated) | -10.7% |
| Cc1cc(C)c(CNc2cnc3ccccc3n2)c(=O)[nH]1 | 59.4% |
| O=C(O)[C@]12CCCN(C3CCOC3)C[C@H]1CN(c1ncccn1)C2 (some centres not stated) | -2.93% |
| Cc1ccc(NC2CCN(C(=O)CCc3nccs3)CC2)nn1 | -12.3% |
| c1ccc(-c2nc(CN3CCCCC3Cn3cncn3)co2)cc1 (configuration not stated) | -0.916% |
| CC1c2cc(F)ccc2CCN1CCS(=O)(=O)C(C)C (configuration not stated) | -3.51% |
| CN1CCN([C@@H]2CN(C(=O)c3cc4ccc(F)cc4[nH]3)C[C@H]2O)CC1 | -3.6% |
| O=C1CC2(CCN(Cc3cccnc3)C2)CN1c1cccc(F)c1 (configuration not stated) | -16.5% |
| Nc1ccc(CC2CCCN(Cc3c[nH]cn3)C2)nn1 (configuration not stated) | -2.3% |
| CN(CC(=O)Nc1nc2c(s1)CCC2)C(=O)c1cccs1 | -12.8% |
| COc1cccn(Cc2nnc(-c3cccnc3)o2)c1=O | -1.16% |
| COc1cc(CNC2CCCc3c2cnn3C)cc(OC)c1 (configuration not stated) | -16.8% |
| COC(=O)c1ccc(NS(=O)(=O)c2cnc(NC(C)=O)s2)cc1 | -12% |
| CC(C)CN1CCOC[C@H](Oc2ccc(S(C)(=O)=O)cc2)C1 | 13.8% |
| CNC(=O)[C@@]12CCO[C@@H]1CCN(S(=O)(=O)c1cc(C)cc(C)c1)C2 | -13.2% |
| Cc1noc(C)c1-c1nc(NCCN(C)C)ncc1-c1cnccn1 | -6.59% |
| COCC1Cn2nnc(-c3cnn(C)c3)c2CN1Cc1cccs1 (configuration not stated) | -12.1% |
| N#Cc1ccc(N2CCC(c3nccn3Cc3cscn3)CC2)nc1 | -0.885% |

| Structure (SMILES) | cytotoxicity at 70.5 h |
| --- | --- |
| Cc1cn[nH]c1C1COCCN1Cc1cscn1 (configuration not stated) | -13.2% |
| O=C(O)C1CCCN1c1nc(C2CC2)cc(C(F)(F)F)n1 (configuration not stated) | 2.63% |
| O=C1CO[C@H]2CN(Cc3ccc4c(c3)OCO4)C[C@H]2N1 | -7.08% |
| c1cnc(N2C[C@H]3CCC[C@@H](CN4CCCC4)[C@H]3C2)nc1 | 22.9% |
| Cc1cc(C)c2c(N(C)CC3CCN(CC(C)C)C3)ncnc2n1 (configuration not stated) | -2.13% |
| COc1ccccc1C(O)CNC(=O)Nc1cccnc1OC (configuration not stated) | -3.1% |
| CN(Cc1nnc(-c2cccs2)o1)C(C(N)=O)c1cccc(F)c1 (configuration not stated) | -22% |
| Cc1cccc(C(=O)N2CCN(S(C)(=O)=O)[C@@H](C)C2)c1C | -0.781% |
| Cc1ocnc1C(=O)N1CCC2(CC1)c1nc[nH]c1CCN2CC(C)C | 27.1% |
| CC(C)c1ccc(C(O)Cn2c(=O)c(C#N)cn(C3CC3)c2=O)cc1 (configuration not stated) | -3.45% |
| Cn1cc(C(=O)N2CCCC(n3cncn3)C2)ccc1=O (configuration not stated) | -9.74% |
| O=C(CSc1ccccn1)N1C[C@H]2CC[C@@H]1CN(Cc1cscn1)C2 | -8.62% |
| COc1cc(Br)c(CNc2ccn(CCC(N)=O)n2)cc1OC | -4.79% |
| Cc1ncc(-c2ccnc(N3CC[C@H](O)C3)n2)c(-c2cccnc2)n1 | -6.52% |
| Cc1ccsc1CN(C)C(=O)c1ccc(N2CCOCC2)c(F)c1 | -7.5% |
| Cn1nc2c(cc1=O)CN(Cc1nnc(C3CC3)o1)CC2 | 19.5% |
| Cc1nc(Nc2ccc(Cl)cn2)sc1C(=O)NC(C)C | 7.41% |
| CNS(=O)(=O)Cc1ccc(CNC(=O)c2ccccn2)cc1 | -9.74% |
| Cc1cc(F)ccc1C(=O)N1C[C@@H]2COC[C@]2(COCC2CC2)C1 | -10.8% |
| Cc1c[nH]nc1C1CCCCN1C(=O)Cn1cc(Cl)cn1 (configuration not stated) | -15.8% |
